Like-named read-outs stand apart in the source and are kept apart here. Where a SMILES comes first, the peptide text is derived from it. [ ]: non-standard residue; d: D form.
Key:
[1] = target: T1, PTHR1 (hPTHR1) (Homo sapiens, UniProt Q03431); experiment: Radioligand competition binding in GP-2.3 cells; settings: for IC50: means of four experiments
T1 construct: expressed in transfected cells; host or cells: GP-2.3 (HEK-293 stably transfected with hPTHR1 and GloSensor)
T1 sequence (Q03431 27-593): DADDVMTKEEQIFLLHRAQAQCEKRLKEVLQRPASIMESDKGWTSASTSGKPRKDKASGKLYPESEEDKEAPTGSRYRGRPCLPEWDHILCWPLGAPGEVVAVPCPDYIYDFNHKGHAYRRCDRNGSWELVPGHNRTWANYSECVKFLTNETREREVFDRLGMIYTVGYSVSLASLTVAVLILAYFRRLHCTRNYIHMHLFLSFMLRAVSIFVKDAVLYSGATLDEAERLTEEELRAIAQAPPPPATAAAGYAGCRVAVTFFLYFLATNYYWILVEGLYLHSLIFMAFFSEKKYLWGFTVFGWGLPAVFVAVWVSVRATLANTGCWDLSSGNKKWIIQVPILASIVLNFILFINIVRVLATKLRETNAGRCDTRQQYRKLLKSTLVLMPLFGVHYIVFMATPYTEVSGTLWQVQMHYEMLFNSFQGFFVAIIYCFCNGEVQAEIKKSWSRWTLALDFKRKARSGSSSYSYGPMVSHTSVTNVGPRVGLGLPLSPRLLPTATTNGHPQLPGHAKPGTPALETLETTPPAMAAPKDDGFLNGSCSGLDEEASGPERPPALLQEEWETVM
Experimental: Intact cell binding reactions were performed in 96-well plates, and, following incubation, the cells were lysed with 1N NaOH, and the lysate was counted for gamma radiation. For membrane dissociation assays, reactions were assembled in 15 cc tubes, and, at times following membrane addition (t=0), aliquots were withdrawn and filtered through a well of a vacuum filtration 96-well plate, rinsed, and, after washing, the filters were removed and counted for gamma irradiation. […] Curves were fit to the data using a four-parameter sigmoidal dose-response equation.
(§1) Pharmacological properties of the ligands were assessed in cells expressing the PTHR1 and the GloSensor™ cAMP reporter. The assays used GP-2.3 cells, derived from HEK293 cells by stable transfection with the hPTHR1 and GloSensor™, as well as SGS-72 cells, which are derived from the human osteosarcoma cell line, Saos-2, in which is endogenously expressed the hPTHR1, by stable transfection with GloSensor™. Binding of representative polypeptides to the PTHR1 was assessed in GP-2.3 cells by radioligand competition methods (FIGS. 1A and 1B, Table 3).
The assays were performed in GP-2.3 cells with the two tracer ^125I-radioligands shown; values are half-maximal inhibitory concentration (pIC50) and corresponding nanomolar value (below) derived from curve fitting ligand dose-response data. Data are means of four experiments.

[2] = target: T2, PTHR1 (Homo sapiens, UniProt Q03431); experiment: Antagonism of PTH(1-34)-induced cAMP response (GloSensor) in GP-2.3 cells; assay type: cell-based; settings: inhibition of PTH(1-34)-induced maximum response, read-out: corresponding nanomolar value of pIC50 (Table 4) (converted)
T2 construct: expressed in transfected cells; host or cells: GP-2.3 (HEK-293 stably transfected with hPTHR1 and GloSensor)
T2 sequence (Q03431 27-593): T1 sequence (Q03431 27-593)
Experimental: (§2) cAMP signaling was assessed in the HEK293-derived or SaOS2-derived cell lines stably expressing the luciferase-based GloSensor™ cAMP reporter (Hattersley et al., Paper presented at: Novel Signaling Mechanisms and Bone Cell Biology 2014; Binkowski et al., Methods in molecular biology. 756:263-271). HEK-293 cells were further transfected to stably express the hPTHR1, hPTHR1-H223R, or hPTHR1-T410P. The cells were seeded into 96-well white plates and were assayed 24 to 48 hours post-confluency. Assays were performed at room temperature in CO2-independent culture media (Life Technologies, Corp., Carlsbad, Calif.) containing 0.1% BSA (CIDB). The cells were pre-loaded with luciferin (0.5 mM in CIDB) for 15 minutes, then PTH peptides were added at varying concentrations. cAMP-dependent luminescence was measured at two-minute intervals using a PerkinElmer Envision plate reader. The time at which maximum luminescence (cps) observed with agonist alone, typically at 10-20 minutes after agonist addition, was used to obtain data from wells containing antagonist with or without agonist, to thus generate antagonist ligand dose-response curves. The resulting cps values were then plotted against ligand concentration using GraphPad Prism 7.0 software and a four-parameter logistics curve fitting equation, which yielded parameters of inhibitory potency (pIC50).
as §1
z,999 concentration of antagonist that inhibited the maximum response to PTH(1-34)-induced in the absence of antagonist (at ˜40 minutes) is reported in units of -log M (pIC50), and the corresponding nanomolar value is shown below each pIC50 value. Data are means of the number of experiments indicated (n). The PTH(1-34)-induced maximum luminescence was ˜80,000 cps and the basal was ˜1,000 cps. TMR indicates Lys13 modified at epsilon amino function with TMR, P vs. inhibition by dW12,Y34-bPTH(7-34).

[3] = target: T2, PTHR1; experiment: Residual agonist activity, cAMP luminescence in GP-2.3 cells; assay type: cell-based; settings: ligands applied directly to GP-2.3 cells
Experimental: as §2

With `CC[C@H](C)[C@H](N)C(=O)N[C@@H](CCC(N)=O)C(=O)N[C@@H](CC(C)C)C(=O)N[C@@H](CCSC)C(=O)N[C@@H](Cc1c[nH]cn1)C(=O)N[C@@H](CCC(N)=O)C(=O)N[C@@H](CCCNC(=N)N)C(=O)N[C@H](Cc1c[nH]c2ccccc12)C(=O)N[C@@H](CCCCN)C(=O)N[C@@H](Cc1c[nH]c2ccccc12)C(=O)N[C@H](C(=O)N[C@@H](CCC(N)=O)C(=O)N[C@@H](CC(=O)O)C(=O)N[C@@H](C)C(=O)N[C@@H](CCCNC(=N)N)C(=O)N[C@@H](CCCNC(=N)N)C(=O)N[C@@H](CCCNC(=N)N)C(=O)N[C@@H](C)C(=O)N[C@@H](Cc1c[nH]c2ccccc12)C(=O)N[C@@H](CC(C)C)C(=O)N[C@@H](Cc1c[nH]cn1)C(=O)N[C@@H](CCCCN)C(=O)N[C@@H](CC(C)C)C(=O)N[C@H](C(=O)N[C@@H](C)C(=O)N[C@@H](CCC(=O)O)C(=O)N[C@H](C(=O)N[C@@H](Cc1c[nH]cn1)C(=O)N[C@H](C(=O)N[C@@H](C)C(=O)N[C@@H](CCC(=O)O)C(=O)N[C@H](C(N)=O)[C@@H](C)CC)[C@@H](C)O)[C@@H](C)CC)[C@@H](C)CC)[C@@H](C)CC` [compound 1949, dW12, W23-LA-PTH(5-36)] (H-IQLMHQR[dW]KWIQDARRRAWLHKLIAEIHTAEI-NH2; N-terminus assumed) as the compound, how does the “apparent PTHR1 affinity compared with dTrp^12-PTH(7-34)-1894” value ([1]; radioligand competition) read?
Its value is “at least as strong”.

What about the IC50 ([1]; tracer ^125I-PTH(1-34), read-out: half-maximal inhibitory concentration, corresponding nanomolar value, tracer ^125I-PTH(1-34)) of the same compound?
The IC50 was 22.3 nM.

And the IC50 ([1]; tracer ^125I-PTHrP(5-36), read-out: half-maximal inhibitory concentration, corresponding nanomolar value, tracer ^125I-PTHrP(5-36))?
The IC50 was 17.7 nM.

What about the IC50 [2] of the same compound?
The IC50 was 101 nM.

What about the “residual agonist activity compared with dTrp^12-PTH(7-34)-1894” value [3] of the same compound?
The value was “less residual agonist activity”.

— US20190119348A1, “PARATHYROID HORMONE RECEPTOR 1 ANTAGONIST AND INVERSE AGONIST POLYPEPTIDES AND METHODS OF THEIR USE” (The General Hospital Corporation, priority 2016, published 2019)
